ChEMBL document CHEMBL1201862, “PubChem BioAssay data set” (2004)
Values joined by “and” are separate entries in the source; they are usually repeats but may differ in a detail not shown here. Identical values can stand only once.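 Cultured in 96-well plates, cells were exposed to test compound for 48 hours across five concentrations. GI50: concentration for 50% inhibition of growth.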 Active and inactive are the calls of the source. Rule as the data show it: active = GI50 up to about 1.1 µM and inactive = higher.

Assays:
Experiment in all cases: DTP human tumour cell line panel, 48 h
HT-29 = test system: HT-29
K562 = test system: K562
UACC-257 = test system: UACC-257
786-0 = test system: 786-0
KM12 = test system: KM12
SN12C = test system: SN12C
CCRF-CEM = test system: CCRF-CEM
NCI-H460 = test system: NCI-H460
Malme-3M = test system: Malme-3M
SF-295 = test system: SF-295
RPMI-8226 = test system: RPMI-8226
PC-3 = test system: PC-3
SNB-75 = test system: SNB-75
UO-31 = test system: UO-31
EKVX = test system: EKVX
NCI-H226 = test system: NCI-H226
MCF7 = test system: MCF7
NCI-H522 = test system: NCI-H522
CAKI-1 = test system: CAKI-1
MDA-MB-435 = test system: MDA-MB-435

Measured: GI50

C=CCCCCNC(=O)C[C@@H]1C2=C(CC[C@H]1O[Si](C)(C)C(C)(C)C)N1C(=O)CCC/C=C\C1C2 (stereo not given in full)
inactive: HT-29 12.3 µM | K562 5.3 µM | UACC-257 13.1 µM | 786-0 15.4 µM | KM12 15 µM | SN12C 15.4 µM | CCRF-CEM 10.6 µM | NCI-H460 14.3 µM | Malme-3M 14.7 µM | SF-295 14.9 µM | RPMI-8226 5.71 µM | PC-3 12 µM | SNB-75 16.4 µM | UO-31 14.2 µM | EKVX 17.3 µM | NCI-H226 15.5 µM | MCF7 12.2 µM | NCI-H522 11.7 µM | CAKI-1 12.4 µM | MDA-MB-435 14.6 µM

COc1ccc([C@]23CCN4COC[C@@H]([C@H]42)C2(CC3)OCC(C)(C)CO2)cc1OC
inactive: HT-29 89.7 µM | K562 > 100 µM | UACC-257 > 100 µM | 786-0 > 100 µM | KM12 > 100 µM | SN12C > 100 µM | CCRF-CEM > 100 µM | NCI-H460 > 100 µM | Malme-3M > 100 µM | SF-295 > 100 µM | RPMI-8226 > 100 µM | PC-3 > 100 µM | SNB-75 53.3 µM | UO-31 > 100 µM | EKVX > 100 µM | NCI-H226 > 100 µM | MCF7 > 100 µM | NCI-H522 > 100 µM | CAKI-1 > 100 µM | MDA-MB-435 > 100 µM

CN(CCc1ccc(Cl)c(Cl)c1)CCN(C)CCN1CCCC1
inactive: HT-29 2.38 µM | K562 2.25 µM | UACC-257 2.36 µM | 786-0 8.99 µM | KM12 10.9 µM | SN12C 15.7 µM | CCRF-CEM 3.72 µM | NCI-H460 8.93 µM | Malme-3M 5.02 µM | SF-295 16.5 µM | RPMI-8226 2.86 µM | PC-3 14.5 µM | SNB-75 14.9 µM | UO-31 5.15 µM | EKVX 16.6 µM | NCI-H226 20 µM | MCF7 12.1 µM | NCI-H522 6.64 µM | CAKI-1 15.2 µM | MDA-MB-435 2.02 µM

CCCCCCc1cc2cc(-c3cn4c(n3)sc3ccccc34)c(=O)oc2cc1O
inactive: HT-29 15.4 µM | K562 > 100 µM | UACC-257 4.42 µM | 786-0 > 31.6 µM | KM12 > 26.9 µM | SN12C > 100 µM | CCRF-CEM > 100 µM | NCI-H460 > 100 µM | Malme-3M 2.36 µM | SF-295 > 100 µM | RPMI-8226 > 100 µM | PC-3 > 100 µM | SNB-75 > 78.5 µM | UO-31 > 100 µM | EKVX 99.8 µM | NCI-H226 > 100 µM | MCF7 > 100 µM | NCI-H522 > 90.4 µM | CAKI-1 > 100 µM | MDA-MB-435 3.46 µM

Cc1ccc(NC(=O)/C(Cc2cc(=O)oc3cc(O)ccc23)=N\NC(=O)C[N+](C)(C)C)cc1C
inactive: HT-29 > 100 µM | K562 > 100 µM | UACC-257 > 100 µM | 786-0 > 100 µM | KM12 > 100 µM | SN12C > 100 µM | CCRF-CEM > 100 µM | NCI-H460 > 100 µM | Malme-3M > 100 µM | SF-295 > 100 µM | RPMI-8226 > 100 µM | PC-3 > 100 µM | SNB-75 > 100 µM | UO-31 > 100 µM | EKVX > 100 µM | NCI-H226 > 100 µM | MCF7 > 100 µM | NCI-H522 > 100 µM | CAKI-1 > 100 µM | MDA-MB-435 > 100 µM

CN/N=C(/CCN1CCCC1)CC(c1ccccc1)c1c(O)c2ccccc2oc1=O (stereo not given)
inactive: HT-29 > 100 µM | K562 > 100 µM | UACC-257 > 100 µM | 786-0 > 100 µM | KM12 > 100 µM | SN12C > 100 µM | CCRF-CEM > 71.9 µM | NCI-H460 > 100 µM | Malme-3M 39.4 µM | SF-295 > 100 µM | RPMI-8226 25.5 µM | PC-3 > 100 µM | SNB-75 19.4 µM | UO-31 > 67.1 µM | EKVX > 100 µM | NCI-H226 > 65.6 µM | MCF7 > 100 µM | NCI-H522 > 100 µM | CAKI-1 > 100 µM | MDA-MB-435 > 100 µM

O=C1N/C(=N/N=C\C(O)C(O)C(O)C(O)CO)N/C1=C/c1ccc(Cl)cc1 (stereo not given)
inactive: HT-29 > 100 µM | K562 55.6 µM and 27.7 µM | UACC-257 > 100 µM | 786-0 > 100 µM | KM12 > 100 µM | SN12C > 100 µM | CCRF-CEM 40.4 µM | NCI-H460 > 100 µM | Malme-3M 97.3 µM | SF-295 > 100 µM | RPMI-8226 > 100 µM | PC-3 > 100 µM | SNB-75 > 100 µM | UO-31 > 100 µM | EKVX > 100 µM and 84.5 µM | NCI-H226 74.8 µM | MCF7 > 100 µM | NCI-H522 55.6 µM and 58.1 µM | CAKI-1 > 100 µM | MDA-MB-435 > 100 µM
